Assay results: US20020128301A1, “Non-nucleoside reverse transcriptase inhibitors” (priority 1998, published 2002)

Assay: Bioavailability: release of the mother compound of Formula P-2 from orally administered prodrugs in rats, plasma assayed by HPLC
Conditions: oral, propylene glycol vehicle, fasted male Sprague Dawley rats, dose corresponding to […]; released drug (1S,2S)-N-[cis-2-(6-fluoro-2-hydroxy-3-propionylphenyl)cyclopropyl]-N'-[2-(5-cyanopyridyl)]urea measured in plasma
Description: At 30, 60, 120, 240 & 360 minutes, 0.2 ml blood were collected, centrifuged and frozen for later analysis. […] Aliquots comprising 40-100 μl of each plasma sample are mixed with an equal volume of acetonitrile (10 seconds, Vibrofex). The sample is centrifuged (2 min, 14000 RPM) and 30 μl the supernatant is injected into an HPLC system, as follows.

Row | Bioavailability 0-6 hours [%] | Compound
1 | 50 | CCC(=O)c1ccc(F)c([C@@H]2C[C@@H]2NC(=O)Nc2ccc(C#N)cn2)c1OCOC(=O)OC(COC(=O)[C@@H](N)C(C)C)COC(=O)[C@@H](N)C(C)C (relative stereo) [Example 6]
2 | 70 | CCC(=O)c1ccc(F)c([C@@H]2C[C@@H]2NC(=O)Nc2ccc(C#N)cn2)c1OC(=O)OCOC(=O)[C@@H](N)C(C)C (relative stereo) [Example 7, (1S,2S)-N-[cis-2-(6-fluoro-2-(L-valyloxy)methoxycarbonyloxy-3-propionylphenyl)cyclopropyl]-N′-[2-(5-cyanopyridyl)]urea]

Row | Compound | Bioavailability 0-6 hours [%]
3 | CCC(=O)c1ccc(F)c([C@@H]2C[C@@H]2NC(=O)Nc2ccc(C#N)cn2)c1OCOC(=O)[C@@H](N)[C@@H](C)CC (relative stereo) [Example 1, (1S, 2S)-N-{cis-2-[6-fluoro-2-(L-isoleucyloxymethyloxy)-3-propionylphenyl]cyclopropyl}-N′-[2-(5-cyanopyridyl)]urea] | 34
